Laboratory results published in the supplement of paper PMC10307832.

Assays:
Assay in all cases: relative viability (nuclei count vs DMSO), 5 days (fraction); higher = more cells survive
[1] = compound: CC1CC(=O)N(C2=CN=C(N=C2N1C3CCCC3)NC4=C(C=C(C=C4)C(=O)NC5CCN(CC5)C)OC)C [NPK76-II-72-1] + Nc1ncn([C@H]2C[C@H](O)[C@@H](CO)O2)c(=O)n1 [Decitabine] (partner 2 µM)
Procedure, shortened: (§1)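 A single step with final 0.05% Triton X-100, 1% formaldehyde and 1 ug/ml Hoechst fixed the cells and stained nuclei 5 days after treatment. Lung cancer cell lines in 1536-well plates had been treated by pin tool the day after seeding with one drug alone or a fixed anchor-drug dose plus five library-drug doses (not always all listed) in √10 steps, and nuclei were counted on 4× images. Relative viability is the ratio of nuclei in treated wells to nuclei in vehicle wells, taken as the median of duplicate plates.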

[2] = compound: CC1CC(=O)N(C2=CN=C(N=C2N1C3CCCC3)NC4=C(C=C(C=C4)C(=O)NC5CCN(CC5)C)OC)C [NPK76-II-72-1] + CS(=O)(=O)N1CCN(Cc2cc3nc(-c4cccc5[nH]ncc45)nc(N4CCOCC4)c3s2)CC1 [Pictilisib] (partner 1 µM)
Procedure, shortened: as §1

BI-2536 + AZD7762 = compound: CC[C@@H]1C(=O)N(C)c2cnc(Nc3ccc(C(=O)NC4CCN(C)CC4)cc3OC)nc2N1C1CCCC1 [BI-2536] + NC(=O)Nc1cc(-c2cccc(F)c2)sc1C(=O)N[C@H]1CCCNC1 [AZD7762] (partner 0.2 µM)
Procedure, shortened: as §1

BI-2536 + Trametinib = compound: CC[C@@H]1C(=O)N(C)c2cnc(Nc3ccc(C(=O)NC4CCN(C)CC4)cc3OC)nc2N1C1CCCC1 [BI-2536] + CC(=O)Nc1cccc(-n2c(=O)n(C3CC3)c(=O)c3c(Nc4ccc(I)cc4F)n(C)c(=O)c(C)c32)c1 [Trametinib] (partner 0.02 µM)
Procedure, shortened: as §1

Cell Line | relative viability ([1]; first compound 0.01 µM) | relative viability ([1]; first compound 0.03162 µM) | relative viability ([1]; first compound 0.1 µM) | relative viability ([1]; first compound 0.3162 µM) | relative viability ([1]; first compound 1 µM) | relative viability ([2]; first compound 0.01 µM) | relative viability ([2]; first compound 0.03162 µM) | relative viability ([2]; first compound 0.1 µM) | relative viability ([2]; first compound 0.3162 µM) | relative viability ([2]; first compound 1 µM) | relative viability (BI-2536 + AZD7762; first compound 0.01 µM) | relative viability (BI-2536 + AZD7762; first compound 0.03162 µM) | relative viability (BI-2536 + AZD7762; first compound 0.1 µM) | relative viability (BI-2536 + AZD7762; first compound 0.3162 µM) | relative viability (BI-2536 + AZD7762; first compound 1 µM) | relative viability (BI-2536 + Trametinib; first compound 0.01 µM) | relative viability (BI-2536 + Trametinib; first compound 0.03162 µM) | relative viability (BI-2536 + Trametinib; first compound 0.1 µM) | relative viability (BI-2536 + Trametinib; first compound 0.3162 µM) | relative viability (BI-2536 + Trametinib; first compound 1 µM)
NCI-H2347 | 0.607 | 0.578 | 0.614 | 0.562 | 0.635 | 0.811 | 0.817 | 0.727 | 0.773 | 0.631 | 0.647 | 0.643 | 0.73 | 0.545 | 0.325 | 0.261 | 0.302 | 0.282 | 0.264 | 0.238
NCI-H2405 | 0.74 | 0.789 | 0.719 | 0.629 | 0.862 | 0.485 | 0.467 | 0.479 | 0.453 | 0.452 | 0.698 | 0.624 | 0.269 | 0.303 | 0.289 | 0.607 | 0.549 | 0.441 | 0.277 | 0.357
NCI-H3122 | 0.361 | 0.431 | 0.471 | 0.424 | 0.438 | 0.625 | 0.618 | 0.601 | 0.652 | 0.63 | 0.939 | 1 | 0.204 | 0.139 | 0.117 | 0.226 | 0.239 | 0.209 | 0.131 | 0.171
PC-3 [JPC-3] | 0.811 |  | 0.882 | 0.878 | 0.95 | 0.779 | 0.772 | 0.561 | 0.667 | 0.743 | 0.878 | 0.76 | 0.321 | 0.216 | 0.197 | 0.71 | 0.583 | 0.616 | 0.357 | 0.438
PC-14 | 0.206 | 0.286 | 0.226 | 0.259 | 0.222 | 0.6 | 0.692 | 0.619 | 0.6 | 0.805 | 0.41 | 0.395 | 0.32 | 0.0493 | 0.0531 | 0.847 | 0.71 | 0.0723 | 0.0556 | 0.0339
RERF-LC-KJ | 0.783 | 0.762 | 0.82 | 0.617 | 0.699 | 0.491 | 0.543 | 0.546 | 0.482 | 0.492 | 0.943 | 0.926 | 0.808 | 0.142 | 0.174 | 0.884 | 0.953 | 0.527 | 0.186 | 0.225
